Assay results taken from US20220168252A1, “RETINOID DERIVATIVES WITH ANTITUMOR ACTIVITY” (BIOGEM S.C. A R.L., priority 2016, published 2022).

Tests used:
Z138 (lymphoma) = assay: Cell survival, Z138, 72 h, MTT; format: cell-based, Human; settings: Homo sapiens, Z-138, read-out: Z138 (lymphoma) IC50 ± SD
Procedure: (§1) The anti-proliferative activity of the POLA1/HDAC dual inhibitors MIR002 and GEM144 was assessed on various cell lines from solid and hematological cancers.
(§2) Tumor cells were treated with POLA1/HDAC dual inhibitors and cell survival assessed upon 72 h with the MTT assay. HDAC=Histone Deacetylase. POLA1=DNA Polymerase Alpha 1.

[1] = test system: parent A2780 ovarian cancer cell line; assay: Anti-proliferative activity, A2780, 24 h + 48 h recovery, SRB; format: cell-based; settings: Homo sapiens, 24 h exposure, read-out: IC50 ± SD A2780
Procedure: (§3) Tumor cells were exposed for 24 h to new atypical retinoids (AR) and the anti-proliferative activity assessed upon 48 h recovery in drug-free medium with the SRB assay. RI=Resistance Index (ratio between the IC50 values of resistant and sensitive cells).

[2] = test system: H460-R9A retinoid resistant cells; assay: H460-R9A lung cancer subcutaneous xenograft in mice; settings: Cisplatin 4 mg/kg IV q7dx4w, MIR002 50 mg/kg OS bid, qdx5/wx4w
Procedure: CD-1 nude and NOG mice, females, 4-5 weeks-old, were housed under specific-pathogen-free conditions in individually ventilated cages.
Cells were cultured in appropriated media and expanded in a 37° C. incubator with saturated humidity and an atmosphere of 95% air and 5% CO2, and were sub-cultured every 2-3 days. Before the injection in mice, cells were checked with MycoAlert® Mycoplasma Detection Kit (Lonza) to exclude mycoplasma contamination, counted by trypan blue dye exclusion, evaluated for cell viability (>95%).
H-460-R9A lung cancer cells were suspended at a concentration of 25×10^6/ml. 5×10^6 tumor cells were suspended in 0.2 ml of M199, then inoculated subcutaneously on the right flank of each animal.
MIR002 was dissolved to a concentration of 3.3 mg/mL in 10% DMSO, 5% ethanol, 20% Kolliphor® EL and 65% Na2CO3 10 mM pH 11 and administered by gavage; Cisplatin was dissolved to a concentration of 0.8 mg/mL in sterile saline solution and administered intravenously.
Four days after inoculation, tumor masses of H460-R9A were measured in length and width using a Mitutoyo caliper, mice were sorted basing on tumor volume (TV) and treatments were started. Tumor volume was calculated as follows: TV (mm3)=(Length (mm)×Width (mm)2)/2. Tumor growth was followed by biweekly measurements. Tumor Growth Inhibition (TGI) for each group was calculated as follows: TGI (%)=100−(mean TVtreated/mean TVcontrol×100). Mice were weighed twice a week.

MM487-Luc mesothelioma [3] = assay: Anti-proliferative activity, MM487-Luc, 24 h + 48 h recovery, SRB; format: cell-based; settings: Homo sapiens, 24 h exposure, read-out: IC50 ± SD MM487-Luc
Procedure: as §3

[4] = test system: NB4 (pro-myelocytic. leukemia); assay: Anti-proliferative activity, NB4, 24 h + 48 h recovery, MTT; format: cell-based; settings: Homo sapiens, 24 h exposure
Procedure: (§4) Tumor cells were exposed for 24 h to new atypical retinoids (AR) and the anti-proliferative activity assessed upon 48 h recovery in drug-free medium with the MTT assay.

[5] = test system: Human Adarotene-resistant NCI-H460 (R9A) NSCLC; assay: Anti-proliferative activity, H460-R9A, 24 h + 48 h recovery, SRB; format: cell-based; settings: 24 h exposure, read-out: IC50 ± SD H460-R9A
Procedure: as §3

Human NCI-H460 NSCLC [6] = assay: Anti-proliferative activity, NCI-H460, 24 h exposure + 48 h recovery, SRB; format: cell-based; settings: 48 h recovery in drug-free medium, SRB (Table 1)
Procedure: Tumor cells were exposed for 24 h to new atypical retinoids (AR) and the anti-proliferative activity assessed upon 48 h recovery in drug-free medium with the SRB assay.

[7] = test system: multidrug-resistant A2780-Dx ovarian carcinoma; assay: Anti-proliferative activity, A2780-Dx, 72 h, SRB; format: cell-based, human; settings: 72 h
Procedure: as §1
(§5) Human tumor cells were treated with POLA1/HDAC dual inhibitors and cell survival assessed upon 72 h with the SRB assay. HDAC=Histone Deacetylase. POLA1=DNA Polymerase Alpha 1. RI=Resistance Index.

[8] = test system: human Pleural Epithelioid Mesothelioma MM473; assay: Orthotopic mesothelioma model MM473 xenografted on nude mice; format: in vivo; settings: 50 mg/kg OS, bid, qdx5/wx4w
Procedure: (MM473-Luc) were re-suspended at the concentration of 1×10^6 cells/40 μl M199 medium., then orthotopically injected intrapeulically with infusion of […] (with Hamilton syringe).
Tumor growth was followed by biweekly measurements. […] Mice were weighed twice a week. […] Tumor growth was further followed by weekly BLI measurements. TGI was calculated as for the H460 trial.

[9] = test system: Z-138 mantle cell lymphoma; assay: Anti-proliferative activity, Z-138, 24 h + 48 h recovery, MTT; format: cell-based; settings: Homo sapiens, 24 h exposure
Procedure: as §4

B16-Luc (Melanoma) = assay: Anti-proliferative activity, B16-Luc, 72 h, SRB; format: cell-based, mouse; settings: Mus musculus, read-out: B16-Luc (Melanoma) IC50 ± SD
Procedure: as §1
(§6) HDAC=Histone Deacetylase. POLA1=DNA Polymerase Alpha 1. N.e.=not evaluated.

NB4 (leukemia) = assay: Cell survival, NB4, 72 h, MTT; format: cell-based, Human; settings: Homo sapiens, read-out: NB4 (leukemia) IC50 ± SD
Procedure: as §1, §2

U87MG-Luc glioma = assay: Anti-proliferative activity, U87MG-Luc, 72 h, SRB; format: cell-based; settings: Homo sapiens, read-out: 87MG-Luc (Glioma) IC50 ± SD
Procedure: as §1, §6

MDA-MB231 (Breast) = assay: Anti-proliferative activity, MDA-MB231, 72 h, SRB; format: cell-based; settings: Homo sapiens, MDA-MB-231, read-out: MDA-MB231 (Breast) IC50 ± SD
Procedure: as §1, §6

MM432-Luc mesothelioma = assay: Anti-proliferative activity, MM432-Luc, 72 h, SRB; format: cell-based; settings: Homo sapiens, read-out: MM432-Luc IC50 ± SD
Procedure: as §1, §6

U2932 (lymphoma) = assay: Cell survival, U2932, 72 h, MTT; format: cell-based, Human; settings: Homo sapiens, U2932, read-out: U2932 (lymphoma) IC50 ± SD
Procedure: as §1, §2

U87MG glioblastoma cells = assay: Anti-proliferative activity, U87MG, 24 h + 48 h recovery, SRB; format: cell-based; settings: Homo sapiens, U-87 MG, 24 h exposure, read-out: IC50 ± SD U87MG
Procedure: as §3

[10] = test system: A2780-Dx multidrug-resistant ovarian cancer cell line; assay: Anti-proliferative activity, A2780-Dx, 24 h + 48 h recovery, SRB; format: cell-based, Human
Procedure: as §3
As described by Zuco V. et al in Neoplasia, 2005 July; 7(7):667-77, H460-R9A are about 70 fold resistant with respect to parental H460 to Adarotene. […] Ovarian cancer A2780 and its clone derivative A2780DX (Doxorubicin resistant) which overexpress P-glycoprotein (PGP), were used to evaluate the possibility of these new molecules to be absorbed at intestinal level. In fact, the overexpression of PGP, as well known, drastically reduces the possibility, after oral administration, of absorption of several chemotherapeutic agents (i.e. Paclitaxel, doxorubicin etc.). Since the IC50 of the tested compounds in A2780 and A2780DX, have similar values we conclude that they are not PGP substrates and they could be administrated to the patients via oral route.

[11] = test system: MDA-MB436 breast carcinoma; assay: Anti-proliferative activity, MDA-MB436, 72 h, SRB; format: cell-based; settings: Homo sapiens, MDA-MB-436, read-out: DA-MB436 (Breast) IC50 ± SD
Procedure: as §1, §6

[12] = test system: parent A2780 ovarian carcinoma; assay: Anti-proliferative activity, A2780, 72 h, SRB; format: cell-based, human; settings: Homo sapiens, A2780, read-out: A2780 IC50 ± SD
Procedure: as §1, §5

MM487-Luc mesothelioma [13] = assay: Anti-proliferative activity, MM487-Luc, 72 h, SRB; format: cell-based, Human; settings: Homo sapiens, read-out: MM487-Luc IC50 ± SD
Procedure: as §1, §6

Human NCI-H460 NSCLC [14] = assay: Anti-proliferative activity, NCI-H460, 72 h, SRB; format: cell-based; settings: Homo sapiens, NCI-H460
Procedure: as §1, §5

THP-1 (leukemia) = assay: Cell survival, THP-1, 72 h, MTT; format: cell-based, Human; settings: Homo sapiens, THP-1, read-out: THP-1 (leukemia) IC50 ± SD
Procedure: as §1, §2

MM473-Luc mesothelioma = assay: Anti-proliferative activity, MM473-Luc, 72 h, SRB; format: cell-based, Human; settings: Homo sapiens, read-out: MM473-Luc IC50 ± SD
Procedure: as §1, §6

[15] = test system: ST1926-resistant H460 (H460-R9A) NSCLC; assay: Anti-proliferative activity, H460-R9A, 72 h, SRB; format: cell-based, human
Procedure: as §1, §5

SMILES: O=C(O)/C=C/c1ccc(-c2ccc(OCC(=O)NO)c(C34CC5CC(CC(C5)C3)C4)c2)cc1 [Compound 8, 3-(3′-Adamantan-1-yl-4′-hydroxycarbamoylmethoxybiphenyl-4-yl)-acrylic acid]
- IC50 (Z138 (lymphoma)): 38 ± 3 nM
- IC50 [1]: 600 ± 10 nM
- BWL Day + 35 ([2]; Adarotene 15 mg/Kg OS q7dx5x4w): 0%
- TGI Day + 35 ([2]; combination same doses): 38%
- IC50 (MM487-Luc mesothelioma [3]): 4.5 ± 0.3 µM
- IC50 [4]: 180 ± 40 nM
- IC50 [5]: 2800 ± 300 nM
- IC50 (Human NCI-H460 NSCLC [6]): ≤ 500 nM
- RI (Resistance Index) ([7]; A2780-Dx vs A2780): 0.7
- IC50 ([7]; Homo sapiens, A2780/DX, SRB, read-out: A2780-Dx IC50 ± SD): 410 ± 5 nM
- BWL Day + 35 [8]: 0%
- TGI Day + 35 [8]: 77%
- IC50 [9]: 74 ± 20 nM
- IC50 (B16-Luc (Melanoma)): 270 ± 20 nM
- IC50 (NB4 (leukemia)): 180 ± 40 nM
- IC50 (U87MG-Luc glioma): 1100 ± 300 nM
- IC50 (MDA-MB231 (Breast)): 1900 ± 200 nM
- IC50 (MM432-Luc mesothelioma): 1500 ± 80 nM
- IC50 (U2932 (lymphoma)): 520 ± 30 nM
- IC50 (U87MG glioblastoma cells): 1100 ± 300 nM
- RI (Resistance Index, ratio between the IC50 values of resistant and sensitive cells) ([10]; A2780-Dx vs A2780, 24 h exposure): 0.7
- IC50 ([10]; Homo sapiens, A2780/DX, 24 h exposure, SRB, read-out: IC50 ± SD A2780-Dx): 410 ± 5 nM
- IC50 [11]: 640 ± 30 nM
- IC50 [12]: 600 ± 10 nM
- IC50 (MM487-Luc mesothelioma [13]): 220 ± 20 nM
- IC50 (Human NCI-H460 NSCLC [14]; 72 h, SRB (Table 8), read-out: NCI-H460 IC50 ± SD): 250 ± 6 nM
- IC50 (Human NCI-H460 NSCLC [14]; chronically exposed 72 h, SRB (Table 2), read-out: IC50 ± SD): < 500 nM
- IC50 (THP-1 (leukemia)): 420 ± 20 nM
- IC50 (MM473-Luc mesothelioma): 1200 ± 60 nM
- RI (Resistance Index) ([15]; H460-R9A vs NCI-H460): 11.2
- IC50 ([15]; Homo sapiens, H460-R9A, SRB, read-out: H460-R9A IC50 ± SD): 2800 ± 50 nM
